Assay results from US5959109A, “Compounds and methods for increasing endogenous levels of corticotropin-releasing factor” (Neurocrine Biosciences, Inc., priority 1996, dated 1999).
Ends that are not written are not given here.

Columns and labels:
[1] = cited from earlier work
[2] = system: human CRF-BP; settings: cited from earlier work
[3] = Elevated plus-maze test; type: in vivo, rat; settings: ICV
Excerpt: The Elevated plus-maze test predicts how animals respond to an approach-avoidance situation involving an exposed, lighted space versus a dark, enclosed area. In the maze, both spaces are elevated off the ground and constitute two runways intersecting in the form of a plus sign. This type of approach-avoidance situation is a classical test of "emotionality" and is very sensitive to treatments that produce disinhibition (such as sedative or hypnotic drugs) and stress. No motivational constraints are necessary and the animal is free to remain in the dark or venture out onto the open arms.
The elevated plus-maze apparatus has four arms (50 cm long, 10 cm wide) situated at right angles to each other and elevated from the floor (50 cm). Two of the arms are enclosed with walls (40 cm high) and two arms have no walls (open arms). Subjects are placed individually into the center of the maze and allowed free access to all four arms for a 5 minute testing period. The time spent in each arm is recorded automatically by photocell beams and a computer interface.
Groups of 7-10 rats receive ICV injections of the ligand inhibitor. For purposes of comparison, rats also receive 0 or 0.1-25 μg of h/rCRF (1-41).

[4] = system: CRF receptors; settings: rat, in vivo; cited from earlier work
[5] = system: CRF/CRF-BP complexes; assay: Disruption of CRF/CRF-BP complexes in human brain tissue in vitro; type: binding
Excerpt: Other peptide molecules, which are distinct from CRF, bind CRF-BP. For example, the human neuropeptide urocortin (Vaughan et al., Nature 378:287, 1995) has a high affinity for human CRF-BP. […] Thus, CRF-BP may be a modulator of a family of CRF-related peptides. […] Such disruption has the effect of increasing free CRF levels, thus making more CRF available for binding to its receptors. The ligand inhibitors of the present invention may also be used to elevate free levels of urocortin and other members of the CRF family in mammals. Assays for measuring the increase of urocortin (as well as other CRF-related peptides) are performed essentially as described herein for CRF, except that the appropriate detection molecules are employed (e.g., antibody to urocortin). Moreover, urocortin, sauvagine, urotensin, and the like and their analogues may be used to inhibit CRF/CRF-BP complexes and raise free CRF levels or inhibit urocortin/CRF-BP complexes and raise free urocortin levels.

[6] = Automated passive avoidance learning; type: in vivo, rat; settings: oral, 5 minutes after training period; FIGS. 5A, 5B
Experimental: FIGS. 5A and 5B are graphs depicting the effect of administration of representative ligand inhibitors of this invention, Compound Nos. 97-1 and 153, respectively. The ligand inhibitors were administered 5 minutes post-training period in the passive avoidance test.
The apparatus for both rats and mice is the same as used in active avoidance testing (see Example 14).
For the training trial, the animal is placed individually in one compartment of the learning apparatus, which is separated from a second compartment by a guillotine door. Following a three minute habituation period, the door is opened and the latency to enter the second compartment is recorded. When the animal enters with all four paws, the door is closed, and a 0.5 second AC footshock (Coulburn precision shocker) is delivered. After five seconds, the subject is removed and placed in its home cage. At the time of testing (usually 1-7 days later), the animal is returned to the compartment in which it was initially placed for the learning trial, the door is opened and the latency to enter the second compartment is recorded, but the animal is not shocked. […]
For most strains of rats with weights between 150 and 350 grams, an effective footshock intensity ranges from 0.2-1.0 mA. […] The latency time of rats to enter the dark compartment is measured. […]

[7] = Morris water maze test; type: in vivo, rat; settings: 1 or 20 mg/kg oral, 15 minutes prior to testing; FIGS. 4A, 4B
Experimental: As discussed in more detail below (see Example 6), 15 minutes prior to training on each of days 1-3, groups of animals orally receive control solution or a dosage of the ligand inhibitor. Control animals typically reach the platform within five to ten seconds after three days of training. The measure of the memory modulator effects of a ligand inhibitor is a shift of this time period. Administration of a ligand inhibitor results in a dose-dependent increase in availability of synaptic CRF and a behavioral dose-dependent increase in acquisition and memory retention.
The Morris Water Maze Test is a simple spatial learning task that requires a minimal amount of stress and experience. […] The latency time to find a hidden platform is monitored. […]
The apparatus used in this test is a pool (46.4 cm in diameter, 45.7 cm high) filled to a depth of 23 cm with opaque water (22° C.-25° C.). […] The animal is placed into a designated quadrant of the tank and the time to approach and ascend the hidden platform is measured; the location of subject placement and platform remain constant throughout the experiment. […]
Rats were treated by oral administration with either vehicle or 1 or 20 mg/kg of either Compound No. 1 or Compound No. 153 15 minutes prior to testing. The latency time to reach the platform in the Morris water maze was recorded for each group.

In the case of “human CRF: peptide that regulates the release of adrenocorticotropin (ACTH), β-endorphin, and other POMC-derived peptides from the pituitary”, the nocturnal food intake ([1]; rat, in vivo) is given as “significant decrease on nocturnal food intake”, the “temperature response in brown adipose tissue” value ([1]; rat, in vivo) is given as “increased temperature response in brown adipose tissue” and the body weight ([1]; rats) is given as “lowered body weight in rats”. For the same compound, the “affinity for CRF-BP” value [2] was “high affinity”, the “time on the open arms / performance” value [3] was “significantly more time on the open arms, indicating increased anxiety” and the carbachol-induced behaviors [4] was “inhibits carbachol-induced behaviors”.

With “rat urocortin: rat urocortin (DDPPLSIDLTFHLLRTLLELARTQSQRERAEQNRIIFDSV; ends and bridges not checked; UniProt P55090 81-120, looked up)” the “disruption of CRF/CRF-BP complexes” value [5] was “can disrupt the CRF/CRF-BP complexes”.

With `COc1ccc(Cn2c(O)c(C=Nc3ncc(C)s3)c(=O)n(Cc3ccc(OC)cc3OC)c2=S)c(OC)c1` [Compound 153] the “latency time to entering the dark compartment” value [6] was “increase in medium latency time” and the “latency time to reach the platform / performance” value [7] was “improved performance at each time interval”.
